The values that follow come from patent US12357711B2, “PSMA binding dual mode radiotracer and therapeutic” (Technische Universität München, priority 2019, dated 2025).

“And” between values parts separate entries of the source, which are not always exact repeats. Equal values may be shown once. Read-outs that look alike come from different tables or passages of the source.

For series [1] the following is noted: Wängler et al. 2010; cited from earlier work.
Series [2] has as its target T1, human serum albumin (Homo sapiens, UniProt P02768).
T1 construct: purchased H13H-2433
Description: HSA binding on Chiralpak HSA column. In kind it is in vitro ADME. As to conditions: for HSA Binding: Chiralpak HSA column (50 × 3 mm, 5 μm); for Log K HSA: reference substances for calibration of the HSA-column.
Description: The mobile phase (A: NH4OAc, 50 mM in water, pH 7 and B: isopropanol) was freshly prepared for each experiment and only used for one day. The column was kept at room temperature and each run was stopped after detection of the signal to reduce the acquisition time. All substances were dissolved in a 0.5 mg/ml concentration in 50% 2-propanol and 50% 50 mM pH 6.9 ammonium acetate buffer. […] All nine reference substances were injected consecutively to establish a non-linear regression with Origin Pro 2016G.

Series [3] can be described thus: Octanol-water partition coefficient (n-octanol/PBS pH 7.4). The series is classed as physicochemical. Conditions: for log P: octanol/PBS7.4, (n = 6). How it is done: Approximately 1 MBq of the labeled tracer was dissolved in 1 mL of a 1:1 mixture (by volumes) of phosphate buffered saline (PBS, pH 7.4) and n-octanol in an Eppendorf tube. After vigorous mixing of the suspension for 3 minutes at room temperature, the vial was centrifuged at 15000 g for 3 minutes (Biofuge 15, Heraus Sepatech, Osterode, Germany) and 100 μL aliquots of both layers were measured in a gamma counter. The experiment was repeated at least six times.
Determianation of the IogP values was carried out in phosphate buffered saline (PBS, pH 7.4) and n-octanol (=logPoct/PBS).

A further series has as its target T2, PSMA (Homo sapiens, UniProt Q04609).
T2 construct: endogenous in cells; host or cells: LNCaP cells
Kind of series: Determination of IC50: PSMA affinity, competitive binding on LNCaP cells against ([125I]I-BA)KuE. As for the experimental part:
Data are expressed as mean±SD (n=3, in 3 different experiments).
After removal of the culture medium, the cells were treated once with 500 μL of HBSS (Hank's balanced salt solution, Biochrom, Berlin, Germany, with addition of 1% bovine serum albumin (BSA)) and left 15 min on ice for equilibration in 200 μL HBSS (1% BSA). […] Quantification of bound and free radioligand was accomplished in a γ-counter.

Series [4] concerns LNCaP tumor-bearing SCID mice. Description: Biodistribution at 1 h p.i. with competition (co-injected PMPA). Conditions: co-injected with PMPA (8 mg/kg); for Biodistribution tumor: LNCaP tumor. The series is classed as in vivo. As for the experimental part:
FIG. 11: Biodistribution [% ID/g] of ^18F-rhPSMAs co-injected with PMPA (8 mg/kg) at 1 h p.i in LNCaP tumor-bearing SCID mice. Data are expressed as mean±SD (n=3).

Series [5] concerns LNCaP tumor-bearing SCID mice. Description: Biodistribution at 1 h p.i. The series is classed as in vivo. Conditions: for Biodistribution tumor: LNCaP tumor. How it is done:
FIG. 10: Biodistribution (in % ID/g) of ^18E-labeled rhPSMA tracers at 1 h p.i in LNCaP tumor-bearing SCID mice. Data are expressed as mean±SD (n=4 for rhPSMA7.1, n=5 for 7.2, n=4 for 7.3, n=5 for 7.4 and n=3 for 7-rac).

For series [6], the system named is PSMA-positive LNCaP cells. Kind of series: Internalization in LNCaP cells, normalized to ([125I]I-BA)KuE. In kind it is cell-based. As to conditions: for individual internalization rates / internalization rate Mean: LNCaP cells, 1 hour, 37° C.; for individual internalization rates: c=0.5 nM, single measurements. How it is done:
Data is corrected for non-specific binding ([…]) and expressed as mean±SD (n=3).
Subsequent to the removal of the culture medium, the cells were washed once with 500 μL DMEM-F12 (5% BSA) and left to equilibrate for at least 15 min at 37° C. in 200 μL DMEM-F12 (5% BSA). Each well was treated with either 25 μL of either DMEM-F12 (5% BSA) or a 100 μM PMPA solution for blockade. Next, 25 μL of the ^68Ga/^18F-labeled PSMA inhibitor (5.0 nM) was added and the cells incubated at 37° C. for 60 min. The experiment was terminated by placing the 24-well plate on ice for 3 min and consecutive removal of the medium. Each well was rinsed with 250 μL HBSS and the fractions from these first two steps combined, representing the amount of free radioligand. Removal of surface bound activity was accomplished by incubation of the cells with 250 μL of ice-cold PMPA (10 μM in PBS) solution for 5 min and rinsed again with another 250 μL of ice-cold PBS. The internalized activity was determined by incubation of the cells in 250 μL 1 M NaOH and the combination with the fraction of a subsequent wash step with 250 μL 1.0 M NaOH. Each experiment (control and blockade) was performed in triplicate. Free, surface bound and internalized activity was quantified in a γ-counter. […] Data were corrected for non-specific internalization and normalized to the specific-internalization observed for the radioiodinated reference compound.

The target in series [7] is T1, human serum albumin. As to conditions: reference substances for calibration of the HSA-column; cited from earlier work.
Where [8] appears, read: LNCaP cells, [125I]IB-KuE c=0.2 nM, 1 h, 4° C., HBSS+1% BSA, single measurements, read-out: individual IC50 measurements.
[9] abbreviates: LNCaP cells, [125I]IB-KuE c=0.2 nM, 1 h, 4° C., mean of individual measurements, read-out: IC50 Mean.

T1 sequence (P02768 25-609): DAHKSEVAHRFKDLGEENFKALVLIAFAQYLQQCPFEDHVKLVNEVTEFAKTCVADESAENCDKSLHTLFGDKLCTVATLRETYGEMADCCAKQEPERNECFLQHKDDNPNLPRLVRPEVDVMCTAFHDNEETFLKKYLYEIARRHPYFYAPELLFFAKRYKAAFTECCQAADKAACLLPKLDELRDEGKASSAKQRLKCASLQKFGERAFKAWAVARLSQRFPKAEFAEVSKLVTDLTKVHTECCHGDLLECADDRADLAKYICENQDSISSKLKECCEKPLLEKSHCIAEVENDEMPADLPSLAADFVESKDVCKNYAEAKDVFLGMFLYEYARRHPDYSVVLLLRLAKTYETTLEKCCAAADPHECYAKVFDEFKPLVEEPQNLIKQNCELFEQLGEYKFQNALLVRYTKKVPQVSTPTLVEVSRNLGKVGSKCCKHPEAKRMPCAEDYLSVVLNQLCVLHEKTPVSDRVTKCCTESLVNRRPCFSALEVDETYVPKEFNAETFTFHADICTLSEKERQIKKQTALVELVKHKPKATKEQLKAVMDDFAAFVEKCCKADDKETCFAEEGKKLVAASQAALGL
T2 sequence (Q04609 whole entry): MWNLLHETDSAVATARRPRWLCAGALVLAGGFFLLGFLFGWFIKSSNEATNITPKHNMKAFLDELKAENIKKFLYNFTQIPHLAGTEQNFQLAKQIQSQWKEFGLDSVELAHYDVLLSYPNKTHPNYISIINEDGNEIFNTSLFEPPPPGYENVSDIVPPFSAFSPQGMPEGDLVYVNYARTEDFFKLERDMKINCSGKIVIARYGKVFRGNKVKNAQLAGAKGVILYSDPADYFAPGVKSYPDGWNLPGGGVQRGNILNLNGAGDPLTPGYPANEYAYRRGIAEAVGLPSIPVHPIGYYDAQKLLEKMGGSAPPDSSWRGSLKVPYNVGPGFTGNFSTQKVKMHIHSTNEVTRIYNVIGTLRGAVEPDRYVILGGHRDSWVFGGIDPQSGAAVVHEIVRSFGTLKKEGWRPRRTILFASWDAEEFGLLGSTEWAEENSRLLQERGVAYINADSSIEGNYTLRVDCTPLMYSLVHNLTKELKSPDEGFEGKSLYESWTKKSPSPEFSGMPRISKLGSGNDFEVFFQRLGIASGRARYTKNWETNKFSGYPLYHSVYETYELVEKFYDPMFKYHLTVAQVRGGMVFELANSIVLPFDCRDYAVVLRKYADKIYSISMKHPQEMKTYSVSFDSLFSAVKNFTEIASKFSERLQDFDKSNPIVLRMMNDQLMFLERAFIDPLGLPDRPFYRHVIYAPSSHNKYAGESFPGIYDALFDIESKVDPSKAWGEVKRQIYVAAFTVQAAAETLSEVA

“SIFA-Asn(AcNH-β-Glc)-PEG-Tyr^3-octreotate”: the “log P(ow)” value in series [1] is listed as 0.96.
As for `O=C(O)CC[C@H](NC(=O)N[C@@H](CCCCNC(=O)c1ccc(F)nc1)C(=O)O)C(=O)O` [DCFPyL, reference compound], the “HSA Binding” value on human serum albumin [2] stood at 14.3%. In series [3] (pH 7.4), the logP is -3.4.
With `CC(C)(C)[Si](F)(c1ccc(C(=O)NC[C@H](NC(=O)CC[C@H](C(=O)O)N2CCN(CC(=O)[O-])CCN(CC(=O)[O-])CCN(CC(=O)[O-])CC2)C(=O)N[C@H](CCCCNC(=O)CCC(=O)NCCC[C@@H](NC(=O)CC[C@H](NC(=O)N[C@@H](CCC(=O)O)C(=O)O)C(=O)O)C(=O)O)C(=O)O)cc1)C(C)(C)C.[Ga+3]` [rhPSMA7.2, [^19F][^natGa]L-Dap-R-DOTAGA-rhPSMA7], the “HSA Binding” value at human serum albumin [2] came out at 97.8%. At PSMA (setting [8]), the IC50 was 2.64 nM and 2.76 nM and 3.94 nM and 5.8 nM and 4.31 nM and 4.32 nM and 3.17 nM and 2.97 nM and 3.36 nM. The IC50 on PSMA (setting [9]) is 3.7 nM. Moreover, in series [3], the “log P” value is reported as −3.13 ± 0.22. Further, the “log P Mean” value in series [3] (octanol/PBS7.4, mean of individual measurements) was −3.13. In addition, the “individual log P measurements” value in series [3] (octanol/PBS7.4, single measurements) is −3.03 and −2.96 and −2.94 and −2.89 and −3.02 and −3.06 and −2.99 and −3.14 and −3.40 and −3.50 and −3.45 and −3.53 and −3.48 and −3.00 and −3.01. In series [4], this compound displayed a Biodistribution adrenals of 0.07 ± 0.10 % ID/g, a Biodistribution blood of 1.1 ± 0.31 % ID/g, a Biodistribution bone of 0.57 ± 0.39 % ID/g and a Biodistribution heart of 0.47 ± 0.09 % ID/g. In series [4], this compound returned a Biodistribution intestine of 0.33 ± 0.10 % ID/g, a Biodistribution kidneys of 10.9 ± 1.0 % ID/g, a Biodistribution liver of 0.46 ± 0.07 % ID/g and a Biodistribution lung of 1.1 ± 0.32 % ID/g. In series [4], this compound yielded a Biodistribution muscle of 0.09 ± 0.03 % ID/g, a Biodistribution pancreas of 0.12 ± 0.05 % ID/g, a Biodistribution spleen of 0.26 ± 0.07 % ID/g and a Biodistribution stomach of 0.21 ± 0.06 % ID/g. In addition, in series [4], the Biodistribution tumor was found to be 1.0 ± 0.13 % ID/g. For the same compound, in series [5], the Biodistribution adrenals is recorded as 1.3 ± 0.8 % ID/g, the Biodistribution blood is reported as 0.56 ± 0.20 % ID/g, the Biodistribution bone came to 0.31 ± 0.24 % ID/g and the Biodistribution heart was determined as 0.32 ± 0.13 % ID/g. In series [5], this compound came in with a Biodistribution intestine of 0.18 ± 0.07 % ID/g, a Biodistribution kidneys of 87.6 ± 28.8 % ID/g, a Biodistribution liver of 0.35 ± 0.08 % ID/g and a Biodistribution lung of 0.89 ± 0.38 % ID/g. Further, in series [5], the Biodistribution muscle is reported as 0.13 ± 0.07 % ID/g, the Biodistribution pancreas worked out at 0.21 ± 0.08 % ID/g, the Biodistribution spleen is reported as 10.1 ± 6.3 % ID/g and the Biodistribution stomach is listed as 0.19 ± 0.08 % ID/g. Moreover, the Biodistribution tumor in series [5] came out at 6.5 ± 2.3 % ID/g. Moreover, in series [6], the individual internalization rates is 192.3 % of [^125I]IB-KuE and 188.7 % of [^125I]IB-KuE and 182.7 % of [^125I]IB-KuE and 169.5 % of [^125I]IB-KuE and 205.3 % of [^125I]IB-KuE and 212.6 % of [^125I]IB-KuE; the “internalization rate Mean” value is 191.83 % of [^125I]IB-KuE.
Turning to `Oc1ccccc1` [Phenol], the “Log K HSA” value on human serum albumin [2] was −0.59. In addition, the “Lit. HSA % (literature value of human serum albumin binding)” value (“Lit. HSA %” for short) at human serum albumin [7] was 20.69%.
`CCCN(CCC)S(=O)(=O)c1ccc(C(=O)O)cc1` [Probenecid]: on human serum albumin [7], the “Lit. HSA %” value was 95.00%.
Take PSMA-1007 [reference compound]: the “HSA Binding” value on human serum albumin [2] stood at 97.8%. Besides, the IC50 on PSMA (identical binding assay, carried out in our lab (Robu et al. 2018), read-out: IC50 of other selected PSMA inhibitors) is 4.2 ± 0.5 nM. Also, in series [3], the “log P” value is recorded as −1.6. In addition, the “internalization of other selected PSMA inhibitors” value in series [6] (identical assay, carried out in our lab (Robu et al. 2018)) was 118 ± 4 % of [^125I]IB-KuE.
In the case of SIFA-Asn(AcNH-β-Glc)-Tyr^3-octreotate, in series [1], the “log P(ow)” value is 1.23.
Consider `O=C(O)c1ccccc1` [Benzoic Acid], for which, on human serum albumin [7], the “Lit. HSA %” value is 34.27%.
In the case of “[^19F][^natGa]L-Dap-S-DOTAGA-rhPSMA7 [rhPSMA7.4]”, the “HSA Binding” value on human serum albumin [2] came out at 96.6%. Besides, the IC50 on PSMA (setting [8]) was 3.4 nM and 3.56 nM and 2.79 nM and 4.57 nM and 3.78 nM. The IC50 at PSMA (setting [9]) amounted to 3.62 nM. In series [4], this compound displayed a Biodistribution adrenals of 0.03 ± 0.04 % ID/g, a Biodistribution blood of 0.82 ± 0.17 % ID/g, a Biodistribution bone of 1.0 ± 0.8 % ID/g and a Biodistribution heart of 0.37 ± 0.05 % ID/g. In series [4], this compound registered a Biodistribution intestine of 0.36 ± 0.08 % ID/g, a Biodistribution kidneys of 7.2 ± 2.4 % ID/g, a Biodistribution liver of 0.48 ± 0.14 % ID/g and a Biodistribution lung of 0.74 ± 0.14 % ID/g. Besides, in series [4], the Biodistribution muscle came out at 0.20 ± 0.05 % ID/g, the Biodistribution pancreas worked out at 0.18 ± 0.09 % ID/g, the Biodistribution spleen is on record as 0.28 ± 0.15 % ID/g and the Biodistribution stomach came out at 0.20 ± 0.07 % ID/g. In addition, the Biodistribution tumor in series [4] is recorded as 0.99 ± 0.19 % ID/g. Further, in series [5], the Biodistribution adrenals came to 3.57 ± 2.38 % ID/g, the Biodistribution blood worked out at 1.15 ± 0.30 % ID/g, the Biodistribution bone is 0.62 ± 0.30 % ID/g and the Biodistribution heart stood at 0.71 ± 0.26 % ID/g. Further, in series [5], the Biodistribution intestine is listed as 0.37 ± 0.09 % ID/g, the Biodistribution kidneys is recorded as 153 ± 80.3 % ID/g, the Biodistribution liver was 0.69 ± 0.20 % ID/g and the Biodistribution lung came to 1.59 ± 0.61 % ID/g. In series [5], this compound yielded a Biodistribution muscle of 0.31 ± 0.08 % ID/g, a Biodistribution pancreas of 0.50 ± 0.30 % ID/g, a Biodistribution spleen of 18.4 ± 9.77 % ID/g and a Biodistribution stomach of 0.25 ± 0.06 % ID/g. For the same compound, the Biodistribution tumor in series [5] was 18.9 ± 3.27 % ID/g. In series [6], the individual internalization rates is 209.6 % of [^125I]IB-KuE and 202.6 % of [^125I]IB-KuE and 209.8 % of [^125I]IB-KuE; the “internalization rate Mean” value is 207.33±4.06 % of [^125I]IB-KuE and 207.33 % of [^125I]IB-KuE.
As to `Nc1ccccc1` [Aniline], on human serum albumin [2], the “Log K HSA” value is given as −0.79. The “Lit. HSA %” value on human serum albumin [7] was 14.06%.
Consider `COc1ccc(Cl)cc1C(=O)NCCc1ccc(S(=O)(=O)NC(=O)NC2CCCCC2)cc1` [Glibenclamide], for which the “Log K HSA” value at human serum albumin [2] is listed as 1.69. For the same compound, at human serum albumin [7], the “Lit. HSA %” value is 99.00%.
